Entries after “also recorded” stand apart in the source; their conditions may differ.
How the values were obtained:
[1] = system: testicular steroidogensis; assay: Inhibitory activity against testicular steroidogenesis in men in good health, single intranasal administration; type: in vivo
Procedure: The said product was administered intranasally at a dose of 500 μg in a few drops of distilled water at 8 A.M. on the third day of the test. For 2 days prior to the treatment and for 6 days after the treatment, samples of blood were taken daily at 8 A.M., 3 P.M. and 10 P.M. On the day of administration of the LH--RH agonist, blood samples were taken at 11 A.M. and 6 P.M.
The seric concentrations of LH and FSH were measured by radioimmuno-logic dosages with double antibodies and the antibodies for measuring LH and FSH were furnished by the National Pituitary Agency of N.I.H. in Bethesda, Md. The seric concentrations of steroids was measured by radioimmuno-logic dosages in which one ml of serum was extracted with ether and the steroids were separated on a LH-20 column before measuring with radioimmuno-logic dosages. The radioimmuno-logic dosage results were determined by a program derived from model II of Rodbard et al [Second Karolinska Symposium on Research Methods in Reproductive Endrocrinology, Diczfalusky Editor, Copenhague (1970), p. 79-103]. The statistical significance was determined by the "multiple level test" of Duncan-Kramer [Kramer, Biometrics, Vol. 12 (1956), p. 307]. The results are shown in the graphs on sheet 1 of the Figures filed herewith.

[2] = system: testicular steriodogenosis; assay: Inhibitory activity on testicular steroidogenesis in a patient with prostate cancer; type: in vivo, human; conditions: intranasal 500 μg twice a day
Text: The inhibitory activity of [D Ser (Tbu)^6, des Gly NH2^10 ] […] The results are reported in the graphs of sheet 2 of the Figures.

[3] = system: ovarian steroidogenosis; assay: Inhibitory activity on ovarian steroidogenesis in women; type: in vivo
Procedure: The inhibitory activity of [D Ser (Tbu)^6, des Gly NH2^10 ] LH--RH ethylamide on ovarian steroidogenosis in women was determined on 6 women aged 26 to 35 years with normal and regular menstrual cycles and without prior endocrinal or gynecological problems. The study was conducted for 6 consecutive cycles consisting of 2 pretreatment cycles, 2 treatment cycles and 2 post-treatment cycles. Two drops of a solution containing 500 μg of [D Ser (Tbu)^6, des Gly NH2^10 ] LH--RH ethylamide were deposited on each nostril at 8 A.M. and 5 P.M. of a day between the 4th and 9th day after the peak of LH-day 0. Daily blood samples were taken between 4 and 6 P.M. to measure seric levels of LH, FSH, progesterone and estradiol which were determined by radioimmuno-logictests with double antibodies. The antibodies to measure LH and FSH were furnished by the National Pituitory Agency of N.I.H. of Bethesda, Md.
Estradiol and progesterone were measured with highly specific antibodies developed against 7-(O-carboxymethyl)-oxime of estradiol and 12-(O-carboxymethyl)-oxime of progesterone, respectively [3H] 17β-estradiol and ^125 I-progesterone-12-[O-carboxymethyl)-oxime]used as tracers. The serum was extracted with benzene and the steroids were separated with a LH-20 column before the determination. The radioimmunological results were exploited by the program derived from model II of Rodbard and Lewald as in Example 1 and the statistical significance was measured by the multiple level test of Ducan-Kramer of Example 1. The results are shown in the graphs of sheets 3 to 5 of the Figures.

[4] = men, intranasal 500 μg, 3rd day following administration
[5] = intranasal 500 μg at 8 A.M. and 5 P.M. of one day in the luteal phase, typical subject of sheet 3

Structure (SMILES): CCNC(=O)[C@@H]1CCCN1C(=O)[C@H](CCCNC(=N)N)NC(=O)[C@H](CC(C)C)NC(=O)[C@@H](COC(C)(C)C)NC(=O)[C@H](Cc1ccc(O)cc1)NC(=O)[C@H](CO)NC(=O)[C@H](Cc1c[nH]c2ccccc12)NC(=O)[C@H](Cc1c[nH]cn1)NC(=O)[C@@H]1CCC(=O)N1 [[D Ser (Tbu)^6, des Gly NH2^10] LH--RH ethylamide]
- duration of the drop of seric levels of the steroids (testosterone and its precursors) ([1]; human, single intranasal dose of 500 μg): 3 days
- diminution of the level of testosterone ([1]; human, single intranasal dose of 500 μg, 3rd day following administration): 50%
- level of testosterone / steroids on the fourth day after administration ([1]; human, single intranasal dose of 500 μg, fourth day (until the 6th day)): returned to normal; also recorded: return to normal levels
- concentration of 17-OH-progesterone relative to the initial control values [1, 4]: 40%
- concentration of testosterone relative to the initial control values [1, 4]: 50%
- LH and FSH plasmatic levels ([1]; men, intranasal 500 μg, after administration): increase
- seric concentration of pregnenolone, 17-OH-pregnenolone, progesterone, 17-OH-progesterone, Δ5-androstene-3β,17β-diol and testosterone ([1]; men, intranasal 500 μg, on the day of treatment): increased
- level of androgenic steroids [2]: diminution
- level of testosterone ([2]; two weeks of treatment): stabilized at a very low level
- progesterone level, cycles of post-treatment, % of the control values (pretreatment cycles = 100%) ([3]; 12 cycles of post-treatment): 99%
- progesterone level, cycles of treatment, % of the control values (pretreatment cycles = 100%) ([3]; 12 cycles of treatment): 46%
- level of progesterone reduced as compared to the controls ([3]; 12 cycles, sheet 5, scale 13 to 127%): 46%
- reduction of seric levels of progesterone as compared to the controls, first cycle of treatment [3, 5]: 13%
- reduction of seric levels of progesterone as compared to the controls, second cycle of treatment [3, 5]: 34%
- level of seric progesterone in the 2 cycles of post-treatment ([3]; post-treatment cycles): return to normal

— patent US4472382A, “Treatment method” (Roussel Uclaf, priority 1979, dated 1984)
